The species named for assay [1] is Mus musculus. Nature of the assay: Concentration at which compound induced concentration-dependent stimulation of the MLR responses in murine spleen cells; range = 80 ng/mL to 2 ug/mL. Format: functional, cell-based.
The species entered for assay [2] is Mus musculus. Kind of assay: Concentration at which compound suppressed the MLR response (mixed leukocyte reaction) in murine spleen cells; range = 80 ng/mL to 2 ug/mL. The assay is classed as functional, cell-based.

Molecules are shown by their SMILES.

In turn, `CCCCCCCCCCCCC/C=C/[C@@H](O)[C@H](CO[C@@H]1O[C@@H](CO)[C@H](O)[C@H](O)[C@@H]1O)NC(C)=O` gave a Concentration in assay [1] of 2 µg/mL.

In assay [2], `CCCCCCCCCCCCC/C=C/[C@@H](O)[C@H](CO)NC(C)=O` showed a Concentration of 2 µg/mL.

Source of the values: ChEMBL document CHEMBL1131563, “Effects of alpha- and beta-galactosylated C2-ceramides on the immune system” (J Med Chem, 1998).
